Assay results published in patent publication US8992977B2, “Multi-day delivery of biologically active substances” (Samos Pharmaceuticals, LLC, priority 2007, dated 2015).

What was measured:
[1] = Hydrolysis of ethinyl estradiol (EE) from conjugate 1; type: physicochemical; details: for Ethinyl Estradiol Released (%): 2:1 ethanol/0.05 M phosphate buffer pH 7.4, 37° C.
Method: Estradiol conjugate 1 (23.0 mg, 0.027 mmol) was dissolved in 48 mL of a 2:1 ethanol/0.05 M aqueous phosphate buffer (pH 7.4) mixture, and the solution was shaken in a 37° C. incubator for 6 days. Estradiol release was determined by integration of ^1H NMR signals obtained from three 8.5 mL aliquots, which were collected at 2-, 3-, and 6-day intervals.

[2] = Calculation of pharmacokinetic profile of orally delivered 3 1/2 day or 7 day pill; details: k 0.42
Source text: Since the release of EE is from a non-constant activity source, i.e., the concentration of the conjugate is continuously decreasing, the release of EE from the conjugate will obey a first order release and thus be proportional to the concentration of conjugate at any time t. These equations have been solved and the final equation describing the release of the EE is given by the equation Mt/M0=1−1/exp(kt), where Mt is the amount of EE released from the conjugate, M0 is the total amount of EE, Mt/M0 is the percent EE released from the conjugate, k is a proportionality constant and t is the time. The constant k was calculated from the data shown in example 17 to be 0.42. […] The pharmacokinetic profiles obtained using pills containing 150 (7 day pill) and 110 (3½ day pill) microgram equivalents of EE are shown in FIG. 1A and FIG. 1B.
As was shown in Example 18, the release from the EE conjugate is governed by the equation Mt/M0=1−1/exp(kt). The value of k was 0.42 as determined from the data of example 17. As discussed in the detailed description of illustrative embodiments, the release can be controlled by many different factors. To obtain half the release rate of EE as compared with that of conjugate of example 17, a value of k=0.22 was used. Using k=0.22 and the pharmacokinetic parameters shown in Example 18, the graphs shown in FIG. 2A and FIG. 2B were obtained. […]

## C#C[C@]1(O)CC[C@H]2[C@@H]3CCc4cc(OC(=O)CCC(=O)OC(c5cc(C(F)(F)F)nc6c(C(F)(F)F)cccc56)C5CCCCN5C(=O)OC(C)(C)C)ccc4[C@H]3CC[C@@]21C (stereo partly shown) [conjugate 1]
[1]; 2:1 ethanol/phosphate buffer pH 7.4, 37° C.
  period over which ethinyl estradiol is released: over a several day period
[1]; Day 2
  Ethinyl Estradiol Released (%): 57%
[1]; Day 3
  Ethinyl Estradiol Released (%): 67%
[1]; Day 6
  Ethinyl Estradiol Released (%): 100%
[1]; calculated from the data of example 17
  proportionality constant k of first order release Mt/M0=1−1/exp(kt): 0.42
[2]; 1 pill every 7 days, 150 microgram equivalents of EE
  peak to valley ratio: 5.1
[2]; pill once every 3½ days, 110 microgram equivalents of EE
  peak to valley ratio (Css.max to Css.min): less than two
